# Test results taken from patent publication US10815206B2, “RIP1 inhibitory compounds and methods for making and using the same” (priority 2018, dated 2020).
# Where two headings read alike, the source gives them in different places.
# Assays:
# [1] = test system: TNF-alpha induced hypothermia; assay: Acute hypothermia mouse model (TNF-alpha/zVAD-FMK induced hypothermia); assay type: in vivo; conditions: mice, oral gavage
# Procedure: In this example, an acute hypothermia mouse model assay was used to evaluate the ability of compounds disclosed herein to inhibit TNF-alpha induced hypothermia.
# Female C57BL/6 mice are randomly grouped and weighed on Day −1. On the day of the study (Day 0), mice are administered vehicle or test article by oral gavage. Fifteen minutes after oral administration of test agents, each mouse is administered an intraperitoneal (IP) injection of solution containing recombinant human tumor necrosis factor alpha (TNF-α, 25.0 μg) and zVAD-FMK (200 μg). Body temperature is measured at 0 hours (before IP injections) and every hour via rectal probe temperature measuring device. Three (3) hours after IP injections of TNF-α and zVAD/FMK, mice are euthanized by CO2 asphyxiation and blood is collected via cardiac puncture. Serum and plasma are harvested for determination of cytokine and compound levels, respectively. Separate groups of mice (satellite mice) are included for the determination of compound levels in plasma at the time of administration of TNFa/zVAD-FMK.
# (S)-5-benzyl-N-(5-methyl-4-oxo-2,3,4,5-tetrahydrobenzo[b][1,4]oxazepin-3-yl)-4H-1,2,4-triazole-3-carboxamide (WO 2014/125444), having a structure as illustrated below, was used as a comparative compound and was examined using a similar protocol as described by WO 2014/125444.
# [2] = test system: TNF-alpha induced hypothermia; conditions: dose of 30 mg/kg, according to WO 2014/125444; cited from earlier work
smiles,measurement,setting,value
"CN1C(=O)[C@@H](NC(=O)c2n[nH]c(Cc3ccccc3)n2)COc2ccc(C#CC(C)(C)O)cc21 [Compound I-30, (S)-5-benzyl-N-(7-(3-hydroxy-3-methylbut-1-yn-1l-yl)-5-methyl-4-oxo-2,3,4,5-tetrahydrobenzo[b][1,4]oxazepin-3-yl)-1H-1,2,4-triazole-3-carboxamide]",inhibition of TNF-alpha induced hypothermia,[1]; dose of 5 mg/kg,greater than 85%
"CN1C(=O)[C@@H](NC(=O)c2nnc(Cc3ccccc3)[nH]2)COc2ccccc21 [comparative compound, (S)-5-benzyl-N-(5-methyl-4-oxo-2,3,4,5-tetrahydrobenzo[b][1,4]oxazepin-3-yl)-4H-1,2,4-triazole-3-carboxamide]",inhibition of TNF-alpha induced hypothermia,"[1]; 30 mg/kg, in the inventors hands",70%
same,inhibition of TNF-alpha induced hypothermia,[2],93%
